Measured values reported in PubChem BioAssay (NCI).
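Each compound was tested at five concentrations against cells in 96-well plates for 48 hours. TGI: total growth inhibition.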

The molecules below were run on NCI-H23 lung (assay: NCI-60 cell line screen, 48 h).
Molecule `CN(Cc1cnc2nc(N)nc(N)c2n1)c1ccc(C(=O)NC(CCC(=O)NCCC(P(=O)(O)O)P(=O)(O)O)C(=O)O)cc1` (stereo not given) has a TGI of over 100 µM.
`O=C1NC(NNc2ccccc2)=N/C1=C\c1ccccc1O` showed a TGI of over 100 µM.
For `CCOC(=O)C1=C(C)N(Cc2ccc(Cl)cc2Cl)C2(O)C=CC(=O)C3C(=O)N(c4ccccc4)C(=O)C132` (stereo not given), the TGI was 3.53 µM.
`N=C1/C(=C/c2ccc(F)cc2)C(=O)N=C2SC=NN12` was tested, and the TGI was over 100 µM.
Molecule `COC(=O)CC(C#N)(OP1(=O)OC(c2ccccc2)C(C)N1C)c1ccccc1` (stereo not given) has a TGI of 97.9 µM.
`CN1CCN(C(=O)CCNC(=O)Cc2ccc(C(=O)c3ccccc3)cc2)CC1` showed a TGI of over 100 µM.
Work on `O=c1cnn(C2OC(C(O)CO)C(O)C2O)c(=O)[nH]1` (stereo not given) yielded a TGI of over 100 µM.
`COc1ccc(N2C(=O)C(=O)N(c3ccccc3[N+](=O)[O-])C2=S)cc1` showed a TGI of 53.5 µM.
For `Nc1c2c(nc3cc(F)c(F)cc13)CCC2`, the TGI was over 100 µM.
`CCCn1c2ccccc2c2ccc3c(c21)C(=O)C=CC3=O` showed a TGI of 5.99 µM.
In the case of `C=C(CCC/C(C)=C/C=C/[C@]1(C)CCCc2ccoc21)CC(=O)O`, the TGI is reported as over 100 µM.
In the case of `CCOC(=O)c1c(NC(=O)c2cccs2)sc2c1CCCC2`, the TGI is reported as over 100 µM.
With `CCCC[C@@H]1CCN2C[C@@H](O)[C@@H](O)[C@@H]2[C@H]1O` the TGI was over 100 µM.

These molecules were tested on NCI-H522 lung (assay: NCI-60 cell line screen, 48 h).
For `CN(Cc1cnc2nc(N)nc(N)c2n1)c1ccc(C(=O)NC(CCC(=O)NCCC(P(=O)(O)O)P(=O)(O)O)C(=O)O)cc1` (stereo not given), the TGI was over 100 µM.
`O=C1NC(NNc2ccccc2)=N/C1=C\c1ccccc1O` gave a TGI of over 100 µM.
`CCOC(=O)C1=C(C)N(Cc2ccc(Cl)cc2Cl)C2(O)C=CC(=O)C3C(=O)N(c4ccccc4)C(=O)C132` (stereo not given) was tested, and the TGI was 3.64 µM.
In the case of `N=C1/C(=C/c2ccc(F)cc2)C(=O)N=C2SC=NN12`, the TGI is reported as over 100 µM.
For `COC(=O)CC(C#N)(OP1(=O)OC(c2ccccc2)C(C)N1C)c1ccccc1` (stereo not given), the TGI was over 100 µM.
Molecule `CN1CCN(C(=O)CCNC(=O)Cc2ccc(C(=O)c3ccccc3)cc2)CC1` has a TGI of over 100 µM.
`O=c1cnn(C2OC(C(O)CO)C(O)C2O)c(=O)[nH]1` (stereo not given) was tested, and the TGI was over 100 µM.
With `COc1ccc(N2C(=O)C(=O)N(c3ccccc3[N+](=O)[O-])C2=S)cc1` the TGI was 24.4 µM.
With `Nc1c2c(nc3cc(F)c(F)cc13)CCC2` the TGI was over 100 µM.
`CCCn1c2ccccc2c2ccc3c(c21)C(=O)C=CC3=O` gave a TGI of 3.54 µM.
`C=C(CCC/C(C)=C/C=C/[C@]1(C)CCCc2ccoc21)CC(=O)O` showed a TGI of over 100 µM.
`CCOC(=O)c1c(NC(=O)c2cccs2)sc2c1CCCC2` was tested, and the TGI was over 100 µM.
Work on `CCCC[C@@H]1CCN2C[C@@H](O)[C@@H](O)[C@@H]2[C@H]1O` yielded a TGI of over 100 µM.

These molecules were tested on NCI/ADR-RES ovarian (assay: NCI-60 cell line screen, 48 h).
Molecule `CN(Cc1cnc2nc(N)nc(N)c2n1)c1ccc(C(=O)NC(CCC(=O)NCCC(P(=O)(O)O)P(=O)(O)O)C(=O)O)cc1` (stereo not given) has a TGI of over 100 µM.
With `O=C1NC(NNc2ccccc2)=N/C1=C\c1ccccc1O` the TGI was over 100 µM.
Molecule `CCOC(=O)C1=C(C)N(Cc2ccc(Cl)cc2Cl)C2(O)C=CC(=O)C3C(=O)N(c4ccccc4)C(=O)C132` (stereo not given) has a TGI of 11.1 µM.
`N=C1/C(=C/c2ccc(F)cc2)C(=O)N=C2SC=NN12` showed a TGI of over 100 µM.
Molecule `COC(=O)CC(C#N)(OP1(=O)OC(c2ccccc2)C(C)N1C)c1ccccc1` (stereo not given) has a TGI of over 100 µM.
In the case of `CN1CCN(C(=O)CCNC(=O)Cc2ccc(C(=O)c3ccccc3)cc2)CC1`, the TGI is reported as over 100 µM.
`O=c1cnn(C2OC(C(O)CO)C(O)C2O)c(=O)[nH]1` (stereo not given) gave a TGI of over 100 µM.
For `COc1ccc(N2C(=O)C(=O)N(c3ccccc3[N+](=O)[O-])C2=S)cc1`, the TGI was 64.2 µM.
In the case of `Nc1c2c(nc3cc(F)c(F)cc13)CCC2`, the TGI is reported as over 100 µM.
In the case of `CCCn1c2ccccc2c2ccc3c(c21)C(=O)C=CC3=O`, the TGI is reported as over 6.93 µM.
In the case of `C=C(CCC/C(C)=C/C=C/[C@]1(C)CCCc2ccoc21)CC(=O)O`, the TGI is reported as over 100 µM.
With `CCOC(=O)c1c(NC(=O)c2cccs2)sc2c1CCCC2` the TGI was over 100 µM.
`CCCC[C@@H]1CCN2C[C@@H](O)[C@@H](O)[C@@H]2[C@H]1O` was tested, and the TGI was over 100 µM.

What follows are molecules tested on RPMI-8226 leukemia (assay: NCI-60 cell line screen, 48 h).
In the case of `CN(Cc1cnc2nc(N)nc(N)c2n1)c1ccc(C(=O)NC(CCC(=O)NCCC(P(=O)(O)O)P(=O)(O)O)C(=O)O)cc1` (stereo not given), the TGI is reported as over 100 µM.
`O=C1NC(NNc2ccccc2)=N/C1=C\c1ccccc1O` gave a TGI of over 100 µM.
`CCOC(=O)C1=C(C)N(Cc2ccc(Cl)cc2Cl)C2(O)C=CC(=O)C3C(=O)N(c4ccccc4)C(=O)C132` (stereo not given) was tested, and the TGI was 2.18 µM.
`N=C1/C(=C/c2ccc(F)cc2)C(=O)N=C2SC=NN12` showed a TGI of over 100 µM.
`COC(=O)CC(C#N)(OP1(=O)OC(c2ccccc2)C(C)N1C)c1ccccc1` (stereo not given) was tested, and the TGI was 70.2 µM.
`CN1CCN(C(=O)CCNC(=O)Cc2ccc(C(=O)c3ccccc3)cc2)CC1` showed a TGI of over 100 µM.
Work on `O=c1cnn(C2OC(C(O)CO)C(O)C2O)c(=O)[nH]1` (stereo not given) yielded a TGI of over 100 µM.
`COc1ccc(N2C(=O)C(=O)N(c3ccccc3[N+](=O)[O-])C2=S)cc1` was tested, and the TGI was 94.2 µM.
For `Nc1c2c(nc3cc(F)c(F)cc13)CCC2`, the TGI was over 100 µM.
For `CCCn1c2ccccc2c2ccc3c(c21)C(=O)C=CC3=O`, the TGI was 5.4 µM.
Work on `C=C(CCC/C(C)=C/C=C/[C@]1(C)CCCc2ccoc21)CC(=O)O` yielded a TGI of over 100 µM.
For `CCOC(=O)c1c(NC(=O)c2cccs2)sc2c1CCCC2`, the TGI was over 100 µM.
Work on `CCCC[C@@H]1CCN2C[C@@H](O)[C@@H](O)[C@@H]2[C@H]1O` yielded a TGI of over 100 µM.

Each molecule was assayed on SF-539 CNS (assay: NCI-60 cell line screen, 48 h).
Work on `CN(Cc1cnc2nc(N)nc(N)c2n1)c1ccc(C(=O)NC(CCC(=O)NCCC(P(=O)(O)O)P(=O)(O)O)C(=O)O)cc1` (stereo not given) yielded a TGI of over 100 µM.
`O=C1NC(NNc2ccccc2)=N/C1=C\c1ccccc1O` showed a TGI of over 100 µM.
`CCOC(=O)C1=C(C)N(Cc2ccc(Cl)cc2Cl)C2(O)C=CC(=O)C3C(=O)N(c4ccccc4)C(=O)C132` (stereo not given) gave a TGI of 5.38 µM.
For `N=C1/C(=C/c2ccc(F)cc2)C(=O)N=C2SC=NN12`, the TGI was over 100 µM.
`COC(=O)CC(C#N)(OP1(=O)OC(c2ccccc2)C(C)N1C)c1ccccc1` (stereo not given) gave a TGI of over 100 µM.
`CN1CCN(C(=O)CCNC(=O)Cc2ccc(C(=O)c3ccccc3)cc2)CC1` showed a TGI of over 100 µM.
Work on `O=c1cnn(C2OC(C(O)CO)C(O)C2O)c(=O)[nH]1` (stereo not given) yielded a TGI of over 100 µM.
With `COc1ccc(N2C(=O)C(=O)N(c3ccccc3[N+](=O)[O-])C2=S)cc1` the TGI was 88.3 µM.
With `Nc1c2c(nc3cc(F)c(F)cc13)CCC2` the TGI was over 100 µM.
For `CCCn1c2ccccc2c2ccc3c(c21)C(=O)C=CC3=O`, the TGI was over 6.41 µM.
With `C=C(CCC/C(C)=C/C=C/[C@]1(C)CCCc2ccoc21)CC(=O)O` the TGI was over 100 µM.
In the case of `CCOC(=O)c1c(NC(=O)c2cccs2)sc2c1CCCC2`, the TGI is reported as 57.4 µM.
For `CCCC[C@@H]1CCN2C[C@@H](O)[C@@H](O)[C@@H]2[C@H]1O`, the TGI was over 100 µM.
